Data from patent US10688099B2, “Methods for modulating the amount of RNA transcripts” (PTC Therapeutics, Inc., priority 2013, dated 2020).

Test system: RNA isoforms in PNN 1-46 SMA type I patient-derived fibroblasts
Test: RNA Abundance Modulation (RNA isoform abundance, iFPM, HiSeq RNA sequencing)
Assay type: cell-based, human
Details: 3 μM
Procedure: Cells from a cell line of interest are cultured in conditions sufficient to yield the number of cells capable of generating enough RNA for subsequent sequencing steps. Cells from the tested cell line are contacted with a compound described herein.
To culture said cells, they are seeded, at appropriate concentrations in a volume of media in a cell culture container and incubated for 4, 5, 6, 7, 8, 9, 10, or more hours. A concentrated solution of compound in a vehicle (e.g., DMSO) is then added in sufficient volume to result in the intended final concentration of the compound, for example 100 nM, 500 nM, 1 μM, 5 μM, 10 μM, 15 μM, 20 μM, or more. The cells may also be treated with vehicle alone, as a control. A number of replicates of each concentration or control may be made (e.g., 2 replicates). The cells are then incubated at a constant temperature appropriate for cell culture of the particular cell line (e.g., 37° C.) for 6, 12, 18, 24, 48, or more hours. After incubation, the growth medium is removed and the cells are washed with the appropriate buffer (e.g., PBS). Cells are then removed from adherence to the cell culture container by treatment with a solution containing trypsin, and the trypsin subsequently quenched with the appropriate volume of buffer (e.g., DMEM-FBS). The cells are then pelleted with gentle centrifugation (e.g., ≤90×g centrifugal force) and resuspended in a buffer to lyse the cells for extraction of RNA. The cell lysates may then be frozen (e.g., at −80° C.) or, alternately, may immediately be used in a procedure to purify the RNA (e.g. by use of the RNEASY PLUS® minikit). The RNA from cell lysates is eluted in the appropriate volume of buffer (e.g., RNEASE-FREE H2O®). The resulting purified RNA may then be sequenced (e.g., using RNASeq) or analyzed using a human exon array (e.g., by GENECHIP® human exon array) to determine changes in the RNA levels in those cells treated with compound compared to those cells treated only with DMSO. The purified RNA may also be quantified by other methods known in the art.
Using the RNA data obtained from sequencing, exon array, or other methods, a statistical analysis can reveal changes in the RNA levels of compound-treated compared with control. For example, t-test p-values may be calculated for the data obtained through sequencing and exon array methods in order to compare compound-treated cells to those treated with the DMSO control. […] Analysis of the sequencing and exon array data may then also yield predictions about the cause of the aberrant amount of an RNA transcript in the cells (e.g., perturbation of RNA splicing, RNA transcription, or RNA stability). These predictions may be further confirmed by methods known in the art. For example, RT-PCR and RT-qPCR may be used to confirm the change in amount of RNA transcripts for one or more particular transcripts of interest.
Following the methods described above in Example 1, PNN 1-46 SMA type I patient-derived fibroblasts were treated with 300 nM or 3 μM Compounds 774 and 808 in 0.5% DMSO.
700,000 cells were seeded in 10 mL of medium (DMEM plus 10% FBS) in a T-75 flask. Cells were allowed to attach for at least 4 hrs, after which 50 μL of a 200× compound solution (100% DMSO) was added to each well, and the plate was incubated at 37° C. for 24 hrs.
At the end of the incubation period, the supernatant was removed and the cells where washed with PBS. TrypLE (Invitrogen) express solution was added (e.g. 1.5 mL per one T75 flask). The flasks were incubated for 3 to 5 min at 37° C. The trypsin was then quenched, e.g., by adding 10 mL DMEM-FBS.
Next, the cells were pelleted using gentle centrifugation without exceeding 90×g centrifugal force. The supernatant was removed and the cell pellet was re-suspended in 600 μL RLT buffer (the RLT buffer was supplemented with beta-mercaptoethanol according to the RNeasy protocol manual) by pipetting up and down until the pellet was completely dissolved […]

CCc1nc(C)cn2nc(-c3cc(=O)n4cc(C5CCN(C)CC5)cc(C)c4n3)cc12 [Compound 774]
amp FC (x + 1) (TGFBRAP1 NM_004257): 156.98
ave Cpd (TGFBRAP1 NM_004257): 0 iFPM
FC (x + 1) (TGFBRAP1 NM_001142621): 1.6224
L2FC (x + 1) (TGFBRAP1 NM_001142621): 0.698
L2abs (Cpd-DMSO) (TGFBRAP1 NM_001142621): 7.42
abs (Cpd-DMSO) (TGFBRAP1 NM_001142621): 172 iFPM
amp FC (x + 1) (TGFBRAP1 NM_001142621): 1.62
ave Cpd (TGFBRAP1 NM_001142621): 446 iFPM
FC (x + 1) (THADA AK025445): 0.2651
L2FC (x + 1) (THADA AK025445): −1.915
L2abs (Cpd-DMSO) (THADA AK025445): 5.17
abs (Cpd-DMSO) (THADA AK025445): 36 iFPM
amp FC (x + 1) (THADA AK025445): 3.77
ave Cpd (THADA AK025445): 12 iFPM
FC (x + 1) (THADA AK126824): 0.1808
L2FC (x + 1) (THADA AK126824): −2.468
L2abs (Cpd-DMSO) (THADA AK126824): 2.55
abs (Cpd-DMSO) (THADA AK126824): 6 iFPM
amp FC (x + 1) (THADA AK126824): 5.53
ave Cpd (THADA AK126824): 0 iFPM
FC (x + 1) (THADA AK307915): 0.2071
L2FC (x + 1) (THADA AK307915): −2.272
L2abs (Cpd-DMSO) (THADA AK307915): 3.71
abs (Cpd-DMSO) (THADA AK307915): 13 iFPM
amp FC (x + 1) (THADA AK307915): 4.83
ave Cpd (THADA AK307915): 2 iFPM
FC (x + 1) (THADA AL832141): 1.7328
L2FC (x + 1) (THADA AL832141): 0.793
L2abs (Cpd-DMSO) (THADA AL832141): 0.72
abs (Cpd-DMSO) (THADA AL832141): 2 iFPM
amp FC (x + 1) (THADA AL832141): 1.73
ave Cpd (THADA AL832141): 3 iFPM
FC (x + 1) (THADA AY149632): 1.0000
L2FC (x + 1) (THADA AY149632): 0.000
L2abs (Cpd-DMSO) (THADA AY149632): 0
abs (Cpd-DMSO) (THADA AY149632): 0 iFPM
amp FC (x + 1) (THADA AY149632): 1.00
ave Cpd (THADA AY149632): 0 iFPM
FC (x + 1) (THADA BX641038): 0.6958
L2FC (x + 1) (THADA BX641038): −0.523
L2abs (Cpd-DMSO) (THADA BX641038): 0.60
abs (Cpd-DMSO) (THADA BX641038): 2 iFPM
amp FC (x + 1) (THADA BX641038): 1.44
ave Cpd (THADA BX641038): 2 iFPM
FC (x + 1) (THADA NM_022065): 0.3170
L2FC (x + 1) (THADA NM_022065): −1.658
L2abs (Cpd-DMSO) (THADA NM_022065): 9.36
abs (Cpd-DMSO) (THADA NM_022065): 657 iFPM
amp FC (x + 1) (THADA NM_022065): 3.15
ave Cpd (THADA NM_022065): 304 iFPM
FC (x + 1) (THADA NM_001083953): 0.0135
L2FC (x + 1) (THADA NM_001083953): −6.211
L2abs (Cpd-DMSO) (THADA NM_001083953): 6.19
abs (Cpd-DMSO) (THADA NM_001083953): 73 iFPM
amp FC (x + 1) (THADA NM_001083953): 74.06
ave Cpd (THADA NM_001083953): 0 iFPM
FC (x + 1) (THADA NM_001271643): 1.1557
L2FC (x + 1) (THADA NM_001271643): 0.209
L2abs (Cpd-DMSO) (THADA NM_001271643): 2.41
abs (Cpd-DMSO) (THADA NM_001271643): 5 iFPM
amp FC (x + 1) (THADA NM_001271643): 1.16
ave Cpd (THADA NM_001271643): 38 iFPM
FC (x + 1) (THADA NM_001271644): 4.4176
L2FC (x + 1) (THADA NM_001271644): 2.143
L2abs (Cpd-DMSO) (THADA NM_001271644): 3.80
abs (Cpd-DMSO) (THADA NM_001271644): 14 iFPM
amp FC (x + 1) (THADA NM_001271644): 4.42
ave Cpd (THADA NM_001271644): 17 iFPM
FC (x + 1) (THADA NR_073394): 0.6844
L2FC (x + 1) (THADA NR_073394): −0.547
L2abs (Cpd-DMSO) (THADA NR_073394): −0.13
abs (Cpd-DMSO) (THADA NR_073394): 1 iFPM
amp FC (x + 1) (THADA NR_073394): 1.46
ave Cpd (THADA NR_073394): 1 iFPM
FC (x + 1) (TIMP2 AK294290): 0.0109
